The text below walks through data of US11484591B2, “Chemoprevention using controlled-release formulations of anti-interleukin 6 agents, synthetic vitamin A analogues or metabolites, and estradiol metabolites” (OHIO STATE INNOVATION FOUNDATION, priority 2016, dated 2022).

The conditions of data set [1]: cited from earlier work.
A short description of data set [2]: In vitro release of 2-ME from PLGA. Type of data set: physicochemical. The conditions noted are these: two low molecular weight acid-capped PLGA 50/50s, 10% 2-ME loading. The text has this: In one embodiment, 2-ME in PLGA can maximize drug loading and facilitate continuous release of the steroid over the correct time scale of release in vivo. Maximizing drug loading can provide more flexibility for dosing and increase the probability of attaining local therapeutic levels. IN one embodiment, the steroid is slowly and continuously released for >1 month in vitro from two different low molecular weight acid-capped PLGA 50/50s at 10% 2-ME loading.
2-ME with/without excipients can be combined with acid-capped PLGA 50/50 (13-24 kD) in acetone and extruded. Drug loading is typically about 10-50%. Drug loading can be determined by HPLC after dissolving implants in acetonitrile. Release kinetics in vitro can be performed in PBS+0.02% Tween 80 (PBST) at 37° C. under perfect sink conditions with HPLC detection.

In data set [3] the test system is SCC2095sc cells. Description: OSCC tumor xenografts, tumor volume. The note with it: for inhibition of established OSCC tumor growth / tumor size: discussion of xenograft study. Type of data set: in vivo, nude mice. Here is the method: One million SCC2095sc cells (suspended in 100 μl Matrigel) were subcutaneously injected in flanks of 6 to 7 week old male nude mice (n=6 per treatment group). By day 14 post injection, all mice had palpable and measurable tumors. Treatment began on day 15. Caliper-based tumor measurements were recorded daily and final tumor volumes calculated via tumor volume V=(length×width)×½. Treatment groups consisted of: 1) control (PBS injections)+blank (no drug) polylactide co-glycolide (PLGA) implants, 2) 2-methoxyestradiol (2-ME) (1 μg/100 μl PBS, b.i.d.)+blank PLGA implant, 3) fenretinide (4-HPR) releasing PLGA implant+PBS injections, 4) tocilizumab (TOC) q.d. (0.3 μg/100 μl PBS)+PLGA blank implant, 5) 2-ME (1 μg/100 μl PBS, b.i.d.)+4-HPR releasing PLGA implant, 6) 2-ME (1 μg/100 μl PBS, b.i.d.)+TOC q.d. (0.3 μg/100 μl PBS)+blank PLGA implant, 7) TOC q.d. (0.3 μg/100 μl PBS)+4-HPR releasing PLGA implant, 8) 2-ME (1 μg/100 μl PBS, b.i.d.)+TOC q.d. (0.3 μg/100 μl PBS)+4-HPR releasing PLGA implant. In previous studies that employed younger mice tumors of varying sizes were disbursed among all treatment groups. Due to the older age of mice >6 weeks and the accompanying cage aggression tumor size distribution was not feasible in these studies. As a result, mean tumor volumes varied appreciably among treatment groups. PLGA implants (trocar placement) and injections were placed in the center of the tumor. Fluid dispersion throughout tumor was noted during injections. At day 28 post OSCC xenograft placement the mice were sacrificed, OSCC tumors along with lung and liver tissues and sera were harvested (for PK and histologic analyses). […] Provided the discrepancy in pretreatment tumor volumes (TOC the lowest, triple treatment second highest with its mean nearly two fold higher than TOC mean), the TOC+2-ME+4-HPR data are especially creditable.
(§1) SCC2095sc cells [10^6 cells suspended in 100 μl Matrigel (Corning Life Sciences, Corning, N.Y.)] were subcutaneously injected in the flanks of 6 week old male nude mice (n=6 per treatment group). Tumor measurements were recorded daily with calipers (greatest length and greatest width) and final tumor volumes calculated via tumor volume V=(length×width)×½. Treatment groups consisted of: 1) control (PBS injections)+blank (no drug) PLGA implants, 2) 2-ME (1 μg/100 μl PBS, b.i.d.)+blank PLGA implant, 3) 4-HPR releasing PLGA implant+PBS injections, 4) TOC q.d. (0.3 μg/100 μl PBS)+PLGA blank implant, 5) 2-ME (1 μg/100 μl PBS, b.i.d.)+4-HPR releasing PLGA implant, 6) 2-ME (1 μg/100 μl PBS, b.i.d.)+TOC q.d. (0.3 μg/100 μl PBS)+blank PLGA implant, 7) TOC q.d. (0.3 μg/100 μl PBS)+4-HPR releasing PLGA implant, 8) 2-ME (1 μg/100 μl PBS, b.i.d.)+TOC q.d. (0.3 μg/100 μl PBS)+4-HPR releasing PLGA implant. By day 14 post injection, all mice had measurable tumors and treatment began on day 15. […] Pretreatment mean tumor volumes therefore varied among treatment groups. PLGA implants (via trocar) and injections were placed in the center of the tumor. At day 28 post OSCC xenograft placement final tumor measurements were obtained, the mice were euthanized and OSCC tumors along with lung, liver and sera were harvested for pharmacokinetic, histologic and IHC analyses (Ki-67, cleaved caspase-3 and involucrin). Image analyses of the nuclear stains (Ki-67 and cleaved caspase 3) were conducted using Image-Pro Plus 6.2 software (Media Cybernetics, Rockville, Md.).

Data set [4] relates to SCC2095sc cells. Kind of data set: IHC of OSCC xenograft tumors (Ki-67, cleaved caspase 3, involucrin). Type of data set: in vivo, nude mice. The conditions noted are these: qualitative. The text has this: IHC images representative of all of the groups are presented. The PLGA implants are visible as a clear cylindrical object in every photomicrograph except the TOC and 2-ME+TOC treatment. To facilitate PLGA implant recognition, arrows have been placed within the implants. Both the Ki-67 and caspase 3 stains are located within the nucleus. Qualitative Ki67 staining assessment was most apparent at the periphery of the tumors in all groups. In contrast to the abundant Ki-67 staining, cleaved caspase 3 was not nearly as prominent.
(Image scale 4× and 10× for smaller and larger photomicrographs, respectively).
SCC2095sc cells [10^6 cells suspended in 100 μl Matrigel (Corning Life Sciences, Corning, N.Y.)] were subcutaneously injected in the flanks of 6 week old male nude mice (n=6 per treatment group). Tumor measurements were recorded daily with calipers (greatest length and greatest width) and final tumor volumes calculated via tumor volume V=(length×width)×½. Treatment groups consisted of: 1) control (PBS injections)+blank (no drug) PLGA implants, 2) 2-ME (1 μg/100 μl PBS, b.i.d.)+blank PLGA implant, 3) 4-HPR releasing PLGA implant+PBS injections, 4) TOC q.d. (0.3 μg/100 μl PBS)+PLGA blank implant, 5) 2-ME (1 μg/100 μl PBS, b.i.d.)+4-HPR releasing PLGA implant, 6) 2-ME (1 μg/100 μl PBS, b.i.d.)+TOC q.d. (0.3 μg/100 μl PBS)+blank PLGA implant, 7) TOC q.d. […]

The subject of data set [5] is NF-κB subunits p65 and p50. Description: NF-κB subunit DNA binding and activation in OSCC cells. Type of data set: cell-based, human. The note with it: data not shown. The procedure: Twenty four hour sera-deprived cells were treated for an additional 24 hours in sera free media with the following: 1) 0.01% DMSO (vehicle control), 2) 5 μM 4-HPR, 3) 2.5 μM 2-ME, 4) 1 μg/ml tocilizumab (TOC, […]) 5) 5 μM 4-HPR+2.5 μM 2-ME, 6) 5 μM 4-HPR+1 μg/ml TOC, 7) 2.5 μM 2-ME+1 μg/ml TOC, 8) 5 μM 4-HPR+2.5 μM 2-ME+1 μg/ml TOC. Following treatment, conditioned media were collected (ELISAs for IL-6, sIL-6R, TGF-α, VEGF, EGF, R&D Systems, Minneapolis, Minn.) and nuclear and cytosolic lysates (Nuclear Extract Kit, Active Motif, Carlsbad, Calif.) isolated for EMSAs (STAT3, NFκB p50 and p65, TransAM Transcription Factor ELISAs, Active Motif) and cytosolic and nuclear extracts for Westerns (NE-PER Nuclear and Cytoplasmic Extraction Reagents, ThermoFisher Scientific, Waltham Mass.). […]

The nature of data set [6]: 4-HPR release from PLGA implants, tumor and sera levels (UPLC/UV). Type of data set: in vivo, nude mice. The conditions noted are these: UPLC/UV vs calibration standard.
From the text: Determination of 4-HPR tumor levels entailed recording tumor wet mass, addition of internal standard (acitretin) and RIPA lysis buffer, followed by homogenization, addition of acetonitrile and centrifugation. Acetretin percent recovery was compared to a RIPA buffer/acetonitrile extraction control solution spiked with equivalent amount of acetretin and 4-HPR. Sera preparation entailed addition of acetretin and acetonitrile, sonication, followed by centrifugation.
as §1

Data set [7] has as its system EGFR, ERK1/2 and STAT3 phosphorylation. Description: Effect of receptor targeted inhibitors on OSCC signaling (immunoblot). Format: cell-based, human. The conditions noted are these: 100 nM. Here is the method: The accompanying histogram depicts levels of phosphorylated […], ERK1/2 and STAT3 relative to GAPDH.
Dosing levels were determined by concurrent proliferation and viability studies in conjunction with literature values. The cells in every treatment group were then stimulated for 20 minutes with: vehicle (1 μl ddH2O), 50 ng/ml EGF, 50 ng/ml VEGF, or 50 ng/ml EGF+50 ng/ml VEGF, followed by standard immunoblotting and data normalization relative to GAPDH. […] Immunoblot images were captured (Li-Cor Odyssey imager) and analyzed (Li-Cor Image Studio, Version 4.0) to depict effects on treatment on phosphorylation relative to respective levels of GAPDH.
In general terms: A western blot detects proteins with antibodies after separation by electrophoresis.

Data set [8] has as its system sIL-6R. Kind of data set: sIL-6R release from OSCC cell lines (ELISA). Type of data set: cell-based, human. The conditions noted are these: 5 μM 4-HPR, 2.5 μM 2-ME, 1 μg/ml TOC, 24 h. Here is the method: FIGS. 5A and 5B show the evaluation of the effects of single and combination treatment of fenretinide (4-HPR, 5 μM), 2-methoxyestradiol (2-ME, 2.5 μM) and the IL-6R inhibitor TOC (1 ug/ml) on STAT3-DNA binding and on release of the stromal and tumor cell activating, trans-signaling molecule, sIL-6R. (A) Treatment effects of STAT3-DNA binding. All cell lines with constitutive pSTAT3 expression (2095sc, JSCC1, JSCC2) were sera deprived for 24 h, followed by an additional 24 hours of treatment in sera-free medium that contained: control (0.1% DMSO), 5 μM 4-HPR, 2.5 μM 2-ME, 1 μg/ml TOC (initial agent concentrations same for single and combinations). As the JSCC3 cells don't constitutively express pSTAT3, these cells underwent 24 h stimulation in base medium supplemented with 10 ng/mL of IL-6 and 5 ng/mL of TGF-α, with or without 4-HPR, 2-ME and TOC followed by harvest. […] (n=13, Kruskal Wallis ANOVA followed by Dunn's Multiple Comparison post hoc test). […] (B) Effects of treatment on cell line release of sIL-6R. All four cell lines released sIL-6R [levels ranges from ˜750 fg/10^6 (JSCC2 cells baseline) to ˜3,000 fg/10^6 cells (stimulated JSCC3 cells, baseline production JSCC3˜2,000 fg/10^6 cells). […]

The subject of data set [9] is HNSCC tumor. The note with it: 100 μg i.p., scid mice, reference 48; cited from earlier work.

One may read the half-life as the time in which the quantity being followed falls by half.

“Also recorded” adds a separate entry of the source.

Take `COc1cc2c(cc1O)CC[C@@H]1[C@@H]2CC[C@]2(C)[C@@H](O)CC[C@@H]12` [2-ME, 2-Methoxyestradiol]: in [1], the half-life is roughly 4 h. For the same molecule, the “duration of slow continuous release in vitro” value in [2] was greater than 1 month. For the same molecule, the “tumor cell invasion and metastasis” value in data set [3] (2-ME treatment group) was “Lymphovascular (several mice) and perineural (single mouse) invasion”. In [3], the “inhibition of established OSCC tumor growth / tumor size” value is on record as “lack of 2-ME efficacy”. For the same molecule, the “involucrin expression (differentiation)” value in data set [4] is “most intense expression”. Further, the “NF-κB activation in OSCC cells” value in [5] was “didn't inhibit”.
For the molecule `CC1=C(/C=C/C(C)=C/C=C/C(C)=C/C(=O)Nc2ccc(O)cc2)C(C)(C)CCC1=O` [4-oxo-4-HPR, 4-oxo-fenretinide], in [6], the “oxidized metabolite in tumor or sera samples” value is “no evidence”.
In the case of `COC(=O)c1ccc2c(c1)NC(=O)/C2=C(\Nc1ccc(N(C)C(=O)CN2CCN(C)CC2)cc1)c1ccccc1` [Vargatef], in data set [7] (JSCC1 and JSCC2 cells), the “phosphorylated STAT3 despite treatment” value is “high to moderate levels of phosphorylated STAT3 persisted; also recorded: pSTAT3 persisted”. Also, the “phosphorylation at the EGFR, ERK1/2 and STAT3 levels” value in data set [7] (JSCC3 cells, 1 h pretreatment, EGF/VEGF stimulation) is given as “reduced phosphorylation; also recorded: blocked STAT3 phosphorylation”.
Turning to “TOC: humanized monoclonal antibody to the IL-6R receptor tocilizumab”, in [8], the sIL-6R release entry was “significantly reduced”. Moreover, in [8] (listed as tocilizumab), the sIL-6R release entry was “significantly inhibited”. In data set [9], the HNSCC tumor initiation result is given as “significantly reduced HNSCC tumor initiation” and the established tumor growth result is “didn't significantly inhibit established tumor growth”. The half-life in [1] was roughly 19 h. Besides, the “mean tumor fold size increase” value in data set [3] (day 15 to day 28, intratumoral treatment) amounted to 2.13 fold. For the same molecule, the “inhibition of established OSCC tumor growth / tumor size” value in data set [3] is “significantly inhibited OSCC tumor growth”. Also, the “increase in tumor volume over 14 days” value in data set [3] (intratumoral, TOC 0.3 μg q.d., 2-ME 1 μg b.i.d., 4-HPR PLGA implant, paired t test) is listed as “prevented a significant increase in tumor volume”.
